Read-outs that look alike come from different tables or passages of the source.
Assays:
biofilm = test: Waste water fouling control in a 7 km pipe, Hazen-Williams coefficient
Description: Treated wastewater was piped from a wastewater treatment plant to a location 7 kilometers away.
(The Hazen-Williams coefficient is used to express water flow through industrial pipes. It is calculated using the formula
[formula] wherein P is the friction pressure drop expressed in pounds per square inch per 1000 feet of pipe length, B is the flow rate in barrels per hour, s is the specific gravity of the liquid, C=a friction factor (the Hazen-Williams coefficient), and d is the internal diameter of the pipe in inches. P and B are measured for a given pipe, s and d are treated as constants, and C is calculated. The results are presented as the Hazen-Williams coefficient.
Waste water (up to 10 m^3/h) was used to appropriately dilute both chemicals. An on-line pH meter controlled the production process and the hypochlorite feeding rate to ensure the production of a stable biofilm inhibiting substance. The biofilm inhibiting substance was injected into the treated waste pipe as it was produced. Concentration of the biofilm inhibiting substance stock solution was 3000-4000 ppm; the pH was maintained at 9.5-10.

[1] = tested on: microorganisms, principally bacteria; settings: for silo/slime formers: Plate Count agar with high excess of glucose; for silo/total count: R2A Agar
Description: Process water samples were drawn and immediately inactivated with sodium thiosulfate to degrade any residue of the biofilm inhibiting substance. Samples were then serially ten-fold diluted in a Trypton (DIFCO) saline dilution medium. The diluted samples were plated in molten R2A Agar (hereinafter=“total count”) and in molten Plate Count agar containing a high excess of glucose (hereinafter “slime formers”). The agar solidified at room temperature and the plates were incubated at 35° C. for 48 h.

[2] = De-inking plant field trial, residual H2O2, residual biofilm inhibiting substance and H2O2 consumption
Description: A de-inking system had been using 7-10 kg H2O2 per ton of waste paper.
The reaction pH was Maintained at 9.8-10.0. The Production process was controlled to ensure synchronous metering of the two chemicals, continuous mixing at the predetermined molar ratio and reproducible production of a stable biofilm inhibiting substance stock solution for the duration of the trial and longer. […] After 850 minutes the dosing rate was reduced to 85 g/ton expressed as total Cl2 by feeding the biofilm inhibiting substance semi-continuously. Various parameters were monitored during start-up of the trial: Residual biofilm inhibiting substance was measured (using a Hach pocket colorimeter, total Cl2, based on the DPD method adapted from Standard Methods for Examination of Waste and Waste Water). […] When necessary, samples were diluted with DI water.

catalase (Merck) = test: Inactivation of catalase, residual H2O2 laboratory test; format: biochemical
Description: Freshly prepared biofilm inhibiting substance was added to the appropriate flasks containing diluted catalase at a pre-defined feed rate. The contents of the containers were mixed for 60 minutes at room temperature prior to addition of H2O2 (to a final H2O2 concentration of 3.5 g/l). After addition of the H2O2, the mixture was allowed to mix for 30 minutes at room temperature, at which point H2O2 residues were measured in each flask in accordance with the Dr. Lange Cuvette Test LCW 058, measured with LASA 20 (based on Jander/Blasius: Lehrbach der Analytischen and Praparative Anorganischen Chemie, as described in the Handbook of Photometrical Operation Analysis (October 1997)).
Sodium hypochlorite was diluted in DI water to a final concentration of 6000 ppm expressed as total chlorine. Ammonium bromide solution (equimolar to 1.1 mole of the diluted sodium hypochlorite solution, 10% excess on a molar basis) and ammonium chloride solution (equimolar to 1.1 mole of the diluted hypochlorite solution, 10% excess on a molar basis) were prepared. The diluted hypochlorite (50 ml) was added dropwise to 50 ml of the appropriate ammonium salt while the pH was constantly measured. The biofilm inhibiting substance concentration in the produced stock solution was immediately measured and the biofilm inhibiting substance at the appropriate feed level was immediately added to the test flasks.

[3] = day 1 of trial, cleaning period
[4] = day 2 of trial, cleaning period
[5] = day 3 of trial, cleaning period
[6] = day 4 of trial, cleaning period
[7] = day 6 of trial, cleaning period
[8] = day 7 of trial, cleaning period
[9] = day 8 of trial, cleaning period
[10] = day 9 of trial, cleaning period
[11] = day 10 of trial, cleaning period
[12] = day 13 of trial, cleaning period
[13] = day 16 of trial, clean paper machine
[14] = day 17 of trial, clean paper machine
[15] = day 20 of trial, clean paper machine
[16] = day 21 of trial, clean paper machine
[17] = day 24 of trial, clean paper machine
[18] = day 27 of trial, clean paper machine

In the case of “bromide activated chloramine [Fuzzicide BAC]”, the “Hazen-Williams coefficient (HW) maintenance” value (biofilm; 10 ppm as total chlorine for three hours once a week, over a period of months, after cleaning) was “constant value”, the “Hazen-Williams coefficient (HW)” value (biofilm; 10 ppm as total chlorine once a day for three hours for 6 consecutive days, HW before ~90) was roughly 104 and the “Hazen-Williams coefficient (HW)” value (biofilm; combination of pigging and 10 ppm (as total Cl2) once a day for three hours, HW before ~104) was roughly 116. For the same substance, the silo/slime formers [1, 3] was 1.0 × 10^1 cfu, the silo/total count [1, 3] was 1 × 10^0 cfu and the silo/slime formers [1, 4] was 5.92 × 10^3 cfu. The silo/total count [1, 4] was 5.68 × 10^4 cfu, the silo/slime formers [1, 5] was 2.0 × 10^2 cfu and the silo/total count [1, 5] was 4.8 × 10^4 cfu. The silo/slime formers [1, 6] was 1.0 × 10^0 cfu, the silo/total count [1, 6] was 7.6 × 10^3 cfu and the silo/slime formers [1, 7] was 1.2 × 10^2 cfu. For the same substance, the silo/total count [1, 7] was 3.8 × 10^3 cfu, the silo/slime formers [1, 8] was 1.0 × 10^0 cfu and the silo/total count [1, 8] was 4.0 × 10^3 cfu. The silo/slime formers [1, 9] was 4.0 × 10^1 cfu, the silo/total count [1, 9] was 1.68 × 10^3 cfu and the silo/slime formers [1, 10] was 2.2 × 10^2 cfu. The silo/total count [1, 10] was 5.0 × 10^3 cfu, the silo/slime formers [1, 11] was 1.0 × 10^0 cfu and the silo/total count [1, 11] was 1.18 × 10^3 cfu. For the same substance, the silo/slime formers [1, 12] was 1.0 × 10^1 cfu, the silo/total count [1, 12] was 2.4 × 10^3 cfu and the silo/slime formers [1, 13] was 1.0 × 10^0 cfu. The silo/total count [1, 13] was 2.0 × 10^2 cfu, the silo/slime formers [1, 14] was 1.0 × 10^0 cfu and the silo/total count [1, 14] was 6.0 × 10^1 cfu. The silo/slime formers [1, 15] was 1.0 × 10^0 cfu, the silo/total count [1, 15] was 3.0 × 10^2 cfu and the silo/slime formers [1, 16] was 1.0 × 10^0 cfu. The silo/total count [1, 16] was 7.5 × 10^2 cfu, the silo/slime formers [1, 17] was 1.0 × 10^0 cfu and the silo/total count [1, 17] was 1.0 × 10^2 cfu. For the same substance, the silo/slime formers [1, 18] was 1.0 × 10^0 cfu, the silo/total count [1, 18] was 1.1 × 10^2 cfu and the “viable counts in process water samples taken from the silo” value ([1]; initial cleaning period, irrespective of high or low residue of Fuzzicide BAC) was 10^3-10^4 viable cells per ml. For the same substance, the “H2O2 feed rate maintaining de-inking bleaching targets” value ([2]; after a few more days of semi-continuous dosing) was roughly 2.2 kg/ton, the “feed rate of H2O2 needed in order to maintain bleaching set point” value ([2]; after about 48 hours of semi-continuous dosing, before trial 7-10 kg H2O2 per ton of waste paper) was roughly 4 kg/ton and the “Residual H2O2 concentration, % of 3.5% g/l” value (catalase (Merck); BIS 8.1 ppm as total chlorine, catalase 26 units/ml, 60 min preincubation, 30 min after H2O2) was 21.4 % of 3.5% g/l. The “Residual H2O2 concentration, % of 3.5% g/l” value (catalase (Merck); BIS 60 ppm as total chlorine, catalase 0 units/ml (no enzyme)) was 100 % of 3.5% g/l, the “Residual H2O2 concentration, % of 3.5% g/l” value (catalase (Merck); BIS 60 ppm as total chlorine, catalase 26 units/ml) was 100 % of 3.5% g/l and the “Residual H2O2 concentration, % of 3.5% g/l” value (catalase (Merck); BIS 140 ppm as total chlorine, catalase 26 units/ml) was 100 % of 3.5% g/l.

Source: patent US8444858B2, “Control of development of biofilms in industrial process water” (A.Y. Laboratories Ltd., priority 2001, dated 2013)
